Reference: ChEMBL document CHEMBL1141419, “N-(5-Fluoro-2-phenoxyphenyl)-N-(2-[(131)I]iodo-5-me thoxybenzyl)acetamide: a potent iodinated radioligand for the peripheral-type benzodiazepine receptor in brain” (J Med Chem, 2007)

Assays:
[1] = target: T1, Translocator protein (Rattus norvegicus, UniProt P16257); assay: Displacement of [11C]PK-11195 from PBR in Sprague-Dawley rat brain; assay type: tissue-based
[2] = organism: Rattus norvegicus; assay: Displacement of [11C]flumazenil from CBR in Sprague-Dawley rat brain
[3] = target: T1, Translocator protein; assay: Displacement of [11C]DAA1106 from PBR in Sprague-Dawley rat brain; assay type: tissue-based
[4] = Distribution coefficient, log D at pH 7.4 by shake flask method; assay type: physicochemical; conditions: octanol/water
[5] = Ratio of drug level in olfactory bulb against striatum in Sprague-Dawley rat after 30 mins; assay type: ADME, tissue-based; conditions: in vivo, 0.5 h
[6] = Stability in iv dosed ddy mouse brain after 30 min; assay type: ADME, organism-based; conditions: read-out: Stability
[7] = Ratio of drug level in choroids plexus against striatum in Sprague-Dawley rat after 30 mins; assay type: ADME, tissue-based; conditions: in vivo, 0.5 h

T1 sequence (P16257 whole entry, looked up): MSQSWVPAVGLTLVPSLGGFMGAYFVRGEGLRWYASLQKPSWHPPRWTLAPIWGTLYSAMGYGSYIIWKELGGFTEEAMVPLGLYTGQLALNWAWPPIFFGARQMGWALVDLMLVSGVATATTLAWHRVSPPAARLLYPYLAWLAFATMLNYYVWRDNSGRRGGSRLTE

| Compound | IC50 [1] [nM] | IC50 [2] [nM] | IC50 [3] [nM] | logD [4] | Ratio [5] | remaining at 0.5 h [6] [%] | Ratio [7] |
| --- | --- | --- | --- | --- | --- | --- | --- |
| COc1ccc([131I])c(CN(C(C)=O)c2cc(F)ccc2Oc2ccccc2)c1 | – | – | – | – | 1.5 | 90 | 3.2 |
| CCC(C)N(C)C(=O)c1cc2ccccc2c(-c2ccccc2Cl)n1 (centres undefined) | – | > 10000 | – | – | – | – | – |
| COc1ccc(I)c(CN(C(C)=O)c2cc(F)ccc2Oc2ccccc2)c1 | 4.4 | > 10000 | 7.8 | 4.42 | – | – | – |

Continued, values first:

| IC50 [1] [nM] | IC50 [2] [nM] | IC50 [3] [nM] | logD [4] | Ratio [5] | remaining at 0.5 h [6] [%] | Ratio [7] | Compound |
| --- | --- | --- | --- | --- | --- | --- | --- |
| 60.1 | > 10000 | 69.2 | 4.03 | – | – | – | COc1ccc(OC)c(CN(C(C)=O)c2cc(I)ccc2Oc2ccccc2)c1 |
| 1.3 | > 10000 | – | – | – | – | – | COc1ccc(OC)c(CN(C(C)=O)c2cc(F)ccc2Oc2ccccc2)c1 |
